Measured values as given in PubChem BioAssay (NCI).
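Briefly, cells in 96-well plates were exposed to five compound concentrations for 48 h, and endpoints were estimated by linear interpolation. TGI: total growth inhibition.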

Assays:
Experiment in all cases: NCI tumour cell line growth inhibition, 48 h
UACC-62 melanoma = system: UACC-62 melanoma
DMS 114 small cell lung = system: DMS 114 small cell lung
XF 498 CNS = system: XF 498 CNS
UO-31 renal = system: UO-31 renal
A498 renal = system: A498 renal
MALME-3M melanoma = system: MALME-3M melanoma
LOX IMVI melanoma = system: LOX IMVI melanoma
NCI-H460 lung = system: NCI-H460 lung
HCC-2998 colon = system: HCC-2998 colon
EKVX NSCLC = system: EKVX NSCLC
HCT-15 colon = system: HCT-15 colon
SK-MEL-5 melanoma = system: SK-MEL-5 melanoma
LXFL 529 NSCLC = system: LXFL 529 NSCLC
SN12C renal = system: SN12C renal
K-562 leukemia = system: K-562 leukemia
KM12 colon = system: KM12 colon
OVCAR-4 ovarian = system: OVCAR-4 ovarian
DLD-1 colon = system: DLD-1 colon
SNB-75 CNS = system: SNB-75 CNS
UACC-257 melanoma = system: UACC-257 melanoma
OVCAR-8 ovarian = system: OVCAR-8 ovarian
786-0 renal = system: 786-0 renal
SF-268 CNS = system: SF-268 CNS
KM20L2 colon = system: KM20L2 colon
A549 NSCLC = system: A549 NSCLC
RPMI-8226 leukemia = system: RPMI-8226 leukemia
U251 CNS = system: U251 CNS
OVCAR-5 ovarian = system: OVCAR-5 ovarian
M19-MEL melanoma = system: M19-MEL melanoma
CCRF-CEM leukemia = system: CCRF-CEM leukemia
IGROV1 ovarian = system: IGROV1 ovarian
RXF 393 renal = system: RXF 393 renal
NCI-H226 lung = system: NCI-H226 lung
HT29 colon = system: HT29 colon
SF-295 CNS = system: SF-295 CNS
SW-620 colon = system: SW-620 colon
SNB-78 CNS = system: SNB-78 CNS
NCI-H23 lung = system: NCI-H23 lung
SF-539 CNS = system: SF-539 CNS
SK-OV-3 ovarian = system: SK-OV-3 ovarian
HOP-92 NSCLC = system: HOP-92 NSCLC
HOP-62 NSCLC = system: HOP-62 NSCLC
MOLT-4 leukemia = system: MOLT-4 leukemia
HCT-116 colon = system: HCT-116 colon
COLO 205 colon = system: COLO 205 colon
SK-MEL-28 melanoma = system: SK-MEL-28 melanoma
HOP-18 NSCLC = system: HOP-18 NSCLC
SK-MEL-2 melanoma = system: SK-MEL-2 melanoma
ACHN renal = system: ACHN renal
TK-10 renal = system: TK-10 renal
M14 melanoma = system: M14 melanoma
OVCAR-3 ovarian = system: OVCAR-3 ovarian
SR leukemia = system: SR leukemia
HL-60(TB) leukemia = system: HL-60(TB) leukemia
CAKI-1 renal = system: CAKI-1 renal
SNB-19 CNS = system: SNB-19 CNS
NCI-H522 lung = system: NCI-H522 lung
DMS 273 small cell lung = system: DMS 273 small cell lung
MDA-MB-435 = system: MDA-MB-435
HS 578T breast = system: HS 578T breast
NCI/ADR-RES ovarian = system: NCI/ADR-RES ovarian
PC-3 prostate = system: PC-3 prostate
MDA-MB-231 breast = system: MDA-MB-231 breast
T-47D breast = system: T-47D breast
BT-549 breast = system: BT-549 breast
MDA-N = system: MDA-N
MCF7 breast = system: MCF7 breast
DU-145 prostate = system: DU-145 prostate

## O=C(c1ccc(Cl)cc1)c1ccc(OCC(=O)N2CCN(c3ccccc3)CC2)cc1
UACC-62 melanoma
  TGI: > 100 µM
DMS 114 small cell lung
  TGI: > 100 µM
XF 498 CNS
  TGI: > 100 µM
UO-31 renal
  TGI: > 100 µM
A498 renal
  TGI: 78.9 µM
MALME-3M melanoma
  TGI: > 100 µM
LOX IMVI melanoma
  TGI: > 100 µM
NCI-H460 lung
  TGI: > 100 µM
HCC-2998 colon
  TGI: > 100 µM
EKVX NSCLC
  TGI: > 100 µM
HCT-15 colon
  TGI: > 100 µM
SK-MEL-5 melanoma
  TGI: > 100 µM
LXFL 529 NSCLC
  TGI: > 100 µM
SN12C renal
  TGI: > 100 µM
K-562 leukemia
  TGI: > 100 µM
KM12 colon
  TGI: > 100 µM
OVCAR-4 ovarian
  TGI: > 100 µM
DLD-1 colon
  TGI: > 100 µM
SNB-75 CNS
  TGI: > 100 µM
UACC-257 melanoma
  TGI: > 100 µM
OVCAR-8 ovarian
  TGI: > 100 µM
786-0 renal
  TGI: > 100 µM
SF-268 CNS
  TGI: > 100 µM
KM20L2 colon
  TGI: > 100 µM
A549 NSCLC
  TGI: > 100 µM
RPMI-8226 leukemia
  TGI: > 100 µM
U251 CNS
  TGI: > 100 µM
OVCAR-5 ovarian
  TGI: > 100 µM
M19-MEL melanoma
  TGI: > 100 µM
CCRF-CEM leukemia
  TGI: > 100 µM
IGROV1 ovarian
  TGI: > 100 µM
RXF 393 renal
  TGI: > 100 µM
NCI-H226 lung
  TGI: > 100 µM
HT29 colon
  TGI: > 100 µM
SF-295 CNS
  TGI: > 100 µM
SW-620 colon
  TGI: > 100 µM
SNB-78 CNS
  TGI: > 100 µM
NCI-H23 lung
  TGI: > 100 µM
SF-539 CNS
  TGI: > 100 µM
SK-OV-3 ovarian
  TGI: > 100 µM
HOP-92 NSCLC
  TGI: > 100 µM
HOP-62 NSCLC
  TGI: > 100 µM
MOLT-4 leukemia
  TGI: > 100 µM
HCT-116 colon
  TGI: > 100 µM
COLO 205 colon
  TGI: > 100 µM
SK-MEL-28 melanoma
  TGI: > 100 µM
HOP-18 NSCLC
  TGI: > 100 µM
SK-MEL-2 melanoma
  TGI: > 100 µM
ACHN renal
  TGI: > 100 µM
TK-10 renal
  TGI: > 100 µM
M14 melanoma
  TGI: > 100 µM
OVCAR-3 ovarian
  TGI: > 100 µM
SR leukemia
  TGI: > 100 µM
HL-60(TB) leukemia
  TGI: > 100 µM
CAKI-1 renal
  TGI: > 100 µM
SNB-19 CNS
  TGI: > 100 µM

## CCOC/N=C(/N)NC#N
UACC-62 melanoma
  TGI: > 100 µM
DMS 114 small cell lung
  TGI: > 100 µM
XF 498 CNS
  TGI: > 100 µM
UO-31 renal
  TGI: > 100 µM
A498 renal
  TGI: > 100 µM
MALME-3M melanoma
  TGI: > 100 µM
LOX IMVI melanoma
  TGI: 27.1 µM
NCI-H522 lung
  TGI: > 100 µM
NCI-H460 lung
  TGI: > 100 µM
HCC-2998 colon
  TGI: > 100 µM
EKVX NSCLC
  TGI: > 100 µM
HCT-15 colon
  TGI: 45 µM
SK-MEL-5 melanoma
  TGI: > 100 µM
LXFL 529 NSCLC
  TGI: > 100 µM
SN12C renal
  TGI: > 100 µM
K-562 leukemia
  TGI: > 100 µM
KM12 colon
  TGI: > 100 µM
DLD-1 colon
  TGI: > 100 µM
SNB-75 CNS
  TGI: > 100 µM
UACC-257 melanoma
  TGI: > 100 µM
OVCAR-8 ovarian
  TGI: > 100 µM
786-0 renal
  TGI: 56.2 µM
SF-268 CNS
  TGI: > 100 µM
KM20L2 colon
  TGI: > 100 µM
A549 NSCLC
  TGI: > 100 µM
RPMI-8226 leukemia
  TGI: > 100 µM
U251 CNS
  TGI: > 100 µM
OVCAR-5 ovarian
  TGI: > 100 µM
M19-MEL melanoma
  TGI: > 100 µM
CCRF-CEM leukemia
  TGI: > 100 µM
IGROV1 ovarian
  TGI: > 100 µM
RXF 393 renal
  TGI: > 100 µM
NCI-H226 lung
  TGI: > 100 µM
HT29 colon
  TGI: > 100 µM
SF-295 CNS
  TGI: > 100 µM
SW-620 colon
  TGI: 35.3 µM
DMS 273 small cell lung
  TGI: > 100 µM
SNB-78 CNS
  TGI: > 100 µM
NCI-H23 lung
  TGI: > 100 µM
SF-539 CNS
  TGI: > 100 µM
SK-OV-3 ovarian
  TGI: > 100 µM
HOP-92 NSCLC
  TGI: > 100 µM
HOP-62 NSCLC
  TGI: > 100 µM
MOLT-4 leukemia
  TGI: > 100 µM
HCT-116 colon
  TGI: > 100 µM
COLO 205 colon
  TGI: > 100 µM
SK-MEL-28 melanoma
  TGI: > 100 µM
HOP-18 NSCLC
  TGI: > 100 µM
SK-MEL-2 melanoma
  TGI: > 100 µM
ACHN renal
  TGI: > 100 µM
TK-10 renal
  TGI: > 100 µM
M14 melanoma
  TGI: > 100 µM
OVCAR-3 ovarian
  TGI: > 100 µM
SR leukemia
  TGI: > 100 µM
HL-60(TB) leukemia
  TGI: > 100 µM
CAKI-1 renal
  TGI: > 100 µM
SNB-19 CNS
  TGI: > 100 µM

## CC(=O)O/C=C\OC1CCCC1(c1ccccc1)c1ccccc1 (configuration not stated)
UACC-62 melanoma
  TGI: 17.5 µM
MDA-MB-435
  TGI: 4.11 µM
UO-31 renal
  TGI: 3.61 µM
A498 renal
  TGI: 32.9 µM
MALME-3M melanoma
  TGI: 4.61 µM
LOX IMVI melanoma
  TGI: 3.14 µM
NCI-H522 lung
  TGI: 23.3 µM
NCI-H460 lung
  TGI: 26.6 µM
HCC-2998 colon
  TGI: 24.3 µM
EKVX NSCLC
  TGI: 20.7 µM
HCT-15 colon
  TGI: 4.7 µM
SK-MEL-5 melanoma
  TGI: 7.19 µM
SN12C renal
  TGI: 10.3 µM
K-562 leukemia
  TGI: 9.05 µM
KM12 colon
  TGI: 12.9 µM
OVCAR-4 ovarian
  TGI: 7.25 µM
SNB-75 CNS
  TGI: 11.5 µM
UACC-257 melanoma
  TGI: 13.6 µM
OVCAR-8 ovarian
  TGI: 7.3 µM
786-0 renal
  TGI: 7.75 µM
SF-268 CNS
  TGI: 10.3 µM
A549 NSCLC
  TGI: 43.8 µM
RPMI-8226 leukemia
  TGI: 6.13 µM
U251 CNS
  TGI: 11.6 µM
OVCAR-5 ovarian
  TGI: 15.3 µM
CCRF-CEM leukemia
  TGI: 5.71 µM
IGROV1 ovarian
  TGI: 6.08 µM
RXF 393 renal
  TGI: 5.06 µM
HS 578T breast
  TGI: 9.8 µM
NCI-H226 lung
  TGI: 24.8 µM
HT29 colon
  TGI: 8.71 µM
NCI/ADR-RES ovarian
  TGI: 8.53 µM
SF-295 CNS
  TGI: 23 µM
SW-620 colon
  TGI: 4.72 µM
PC-3 prostate
  TGI: 9.15 µM
MDA-MB-231 breast
  TGI: 5.51 µM
T-47D breast
  TGI: 6.19 µM
NCI-H23 lung
  TGI: 8.11 µM
SF-539 CNS
  TGI: 3.68 µM
SK-OV-3 ovarian
  TGI: 27.6 µM
BT-549 breast
  TGI: 4.66 µM
MDA-N
  TGI: 5 µM
HOP-92 NSCLC
  TGI: 3.89 µM
HOP-62 NSCLC
  TGI: 25.4 µM
MOLT-4 leukemia
  TGI: 9.07 µM
HCT-116 colon
  TGI: 4.19 µM
COLO 205 colon
  TGI: 13.8 µM
SK-MEL-28 melanoma
  TGI: 4.59 µM
SK-MEL-2 melanoma
  TGI: 12.5 µM
ACHN renal
  TGI: 4.36 µM
TK-10 renal
  TGI: 9.33 µM
M14 melanoma
  TGI: 5.75 µM
OVCAR-3 ovarian
  TGI: 7.59 µM
MCF7 breast
  TGI: 5.42 µM
DU-145 prostate
  TGI: 13.7 µM
SR leukemia
  TGI: 4.93 µM
HL-60(TB) leukemia
  TGI: 2.89 µM
CAKI-1 renal
  TGI: 14.3 µM
SNB-19 CNS
  TGI: 26.3 µM
